Measured values as given in the NIST ThermoML archive (doi:10.1021/je700152c).

Assay: molar heat capacity at saturation pressure; xn = mol fraction of the nth substance listed

CCCCn1cc[n+](C)c1.Cc1ccc(S(=O)(=O)[O-])cc1 [1-butyl-3-methylimidazolium tosylate] + O
Details | molar heat capacity [J/K/mol]
246.29 K, Crystal, x1 = 0.3 | 181.97
247.04 K, Crystal, x1 = 0.37 | 195.61
247.05 K, Crystal, x1 = 0.83 | 303.46
247.42 K, Crystal, x1 = 0.3 | 183.98
248.02 K, Metastable crystal, x1 = 0.83 | 322.49
248.32 K, Crystal, x1 = 0.37 | 197.76
248.55 K, Crystal, x1 = 0.3 | 185.99
249.21 K, Crystal, x1 = 0.83 | 306.59
249.59 K, Crystal, x1 = 0.37 | 199.9
249.68 K, Crystal, x1 = 0.3 | 188.1
249.95 K, Metastable crystal, x1 = 0.83 | 325.36
250.8 K, Crystal, x1 = 0.3 | 190.22
250.86 K, Crystal, x1 = 0.37 | 202.18
251.37 K, Crystal, x1 = 0.83 | 309.46
251.87 K, Metastable crystal, x1 = 0.83 | 328.49
251.91 K, Crystal, x1 = 0.3 | 192.75
252.13 K, Crystal, x1 = 0.37 | 204.32
253.03 K, Crystal, x1 = 0.3 | 194.97
253.39 K, Crystal, x1 = 0.37 | 206.85
253.52 K, Crystal, x1 = 0.83 | 312.59
253.79 K, Metastable crystal, x1 = 0.83 | 331.88
254.13 K, Crystal, x1 = 0.3 | 197.41
254.64 K, Crystal, x1 = 0.37 | 209.37
255.24 K, Crystal, x1 = 0.3 | 200.05
255.66 K, Crystal, x1 = 0.83 | 315.71
255.7 K, Metastable crystal, x1 = 0.83 | 335.27
255.89 K, Crystal, x1 = 0.37 | 212.02
256.33 K, Crystal, x1 = 0.3 | 202.69
257.13 K, Crystal, x1 = 0.37 | 214.67
257.42 K, Crystal, x1 = 0.3 | 205.55
257.6 K, Metastable crystal, x1 = 0.83 | 339.18
257.79 K, Crystal, x1 = 0.83 | 318.84
258.37 K, Crystal, x1 = 0.37 | 217.57
258.51 K, Crystal, x1 = 0.3 | 208.4
259.5 K, Metastable crystal, x1 = 0.83 | 342.83
259.59 K, Crystal, x1 = 0.3 | 211.36
259.6 K, Crystal, x1 = 0.37 | 220.6
259.92 K, Crystal, x1 = 0.83 | 322.23
260.66 K, Crystal, x1 = 0.3 | 214.43
260.83 K, Crystal, x1 = 0.37 | 223.76
261.38 K, Metastable crystal, x1 = 0.83 | 346.22
261.73 K, Crystal, x1 = 0.3 | 217.6
262.04 K, Crystal, x1 = 0.83 | 325.62
262.05 K, Crystal, x1 = 0.37 | 227.04
262.8 K, Crystal, x1 = 0.3 | 221.09
263.25 K, Metastable crystal, x1 = 0.83 | 349.61
263.26 K, Crystal, x1 = 0.37 | 230.45
263.85 K, Crystal, x1 = 0.3 | 224.58
264.15 K, Crystal, x1 = 0.83 | 329.27
264.46 K, Crystal, x1 = 0.37 | 233.98
264.9 K, Crystal, x1 = 0.3 | 228.28
265.12 K, Metastable crystal, x1 = 0.83 | 353.26
265.66 K, Crystal, x1 = 0.37 | 238.02
265.94 K, Crystal, x1 = 0.3 | 232.09
266.24 K, Crystal, x1 = 0.83 | 333.18
266.85 K, Crystal, x1 = 0.37 | 241.93
266.97 K, Crystal, x1 = 0.3 | 236
266.99 K, Metastable crystal, x1 = 0.83 | 356.38
268 K, Crystal, x1 = 0.3 | 240.55
268.03 K, Crystal, x1 = 0.37 | 246.09
268.33 K, Crystal, x1 = 0.83 | 337.35
268.85 K, Metastable crystal, x1 = 0.83 | 360.03
269.01 K, Crystal, x1 = 0.3 | 244.56
269.2 K, Crystal, x1 = 0.37 | 250.51
270.02 K, Crystal, x1 = 0.3 | 249.64
270.37 K, Crystal, x1 = 0.37 | 255.18
270.4 K, Crystal, x1 = 0.83 | 342.31
270.7 K, Metastable crystal, x1 = 0.83 | 363.68
271.02 K, Crystal, x1 = 0.3 | 254.4
271.52 K, Crystal, x1 = 0.37 | 259.98
272.01 K, Crystal, x1 = 0.3 | 258.84
272.47 K, Crystal, x1 = 0.83 | 347
272.55 K, Metastable crystal, x1 = 0.83 | 367.59
272.66 K, Crystal, x1 = 0.37 | 265.28
272.99 K, Crystal, x1 = 0.3 | 264.76
273.8 K, Crystal, x1 = 0.37 | 270.96
273.97 K, Crystal, x1 = 0.3 | 269.83
274.39 K, Metastable crystal, x1 = 0.83 | 371.51
274.51 K, Crystal, x1 = 0.83 | 353.78
274.92 K, Crystal, x1 = 0.37 | 276.89
274.93 K, Crystal, x1 = 0.3 | 276.18
275.88 K, Crystal, x1 = 0.3 | 281.68
276.03 K, Crystal, x1 = 0.37 | 283.2
276.22 K, Metastable crystal, x1 = 0.83 | 375.42
276.53 K, Crystal, x1 = 0.83 | 361.08
276.82 K, Crystal, x1 = 0.3 | 288.23
277.13 K, Crystal, x1 = 0.37 | 289.76
277.75 K, Crystal, x1 = 0.3 | 295.53
278.04 K, Metastable crystal, x1 = 0.83 | 379.33
278.22 K, Crystal, x1 = 0.37 | 296.83
278.52 K, Crystal, x1 = 0.83 | 369.42
278.68 K, Crystal, x1 = 0.3 | 301.77
279.29 K, Crystal, x1 = 0.37 | 304.4
279.59 K, Crystal, x1 = 0.3 | 309.59
279.86 K, Metastable crystal, x1 = 0.83 | 383.76
280.35 K, Crystal, x1 = 0.37 | 312.6
280.48 K, Crystal, x1 = 0.3 | 318.37
280.49 K, Crystal, x1 = 0.83 | 379.59
281.36 K, Crystal, x1 = 0.3 | 326.4
281.39 K, Crystal, x1 = 0.37 | 321.44
281.67 K, Metastable crystal, x1 = 0.83 | 388.19
282.23 K, Crystal, x1 = 0.3 | 334.33
282.42 K, Crystal, x1 = 0.37 | 331.41
282.42 K, Crystal, x1 = 0.83 | 391.58
283.09 K, Crystal, x1 = 0.3 | 343.11
283.44 K, Crystal, x1 = 0.37 | 340.37
283.47 K, Metastable crystal, x1 = 0.83 | 393.14
283.93 K, Crystal, x1 = 0.3 | 351.57
284.33 K, Crystal, x1 = 0.83 | 406.44
284.44 K, Crystal, x1 = 0.37 | 351.47
284.76 K, Crystal, x1 = 0.3 | 360.66
285.26 K, Metastable crystal, x1 = 0.83 | 399.66
285.41 K, Crystal, x1 = 0.37 | 362.2
285.58 K, Crystal, x1 = 0.3 | 372.5
286.18 K, Crystal, x1 = 0.83 | 423.91
286.37 K, Crystal, x1 = 0.3 | 390.05
286.38 K, Crystal, x1 = 0.37 | 375.33
287.02 K, Metastable crystal, x1 = 0.83 | 407.22
287.16 K, Crystal, x1 = 0.3 | 386.46
287.33 K, Crystal, x1 = 0.37 | 388.2
287.96 K, Crystal, x1 = 0.3 | 383.82
288 K, Crystal, x1 = 0.83 | 449.2
288.25 K, Crystal, x1 = 0.37 | 402.21
288.77 K, Crystal, x1 = 0.3 | 372.08
288.84 K, Metastable crystal, x1 = 0.83 | 414.26
289.16 K, Crystal, x1 = 0.37 | 417.23
289.6 K, Crystal, x1 = 0.3 | 343.95
289.76 K, Crystal, x1 = 0.83 | 475.27
290.05 K, Crystal, x1 = 0.37 | 434.26
290.49 K, Crystal, x1 = 0.3 | 303.04
290.69 K, Metastable crystal, x1 = 0.83 | 420.52
290.92 K, Crystal, x1 = 0.37 | 452.18
291.45 K, Crystal, x1 = 0.3 | 258.1
291.45 K, Crystal, x1 = 0.83 | 514.89
291.76 K, Crystal, x1 = 0.37 | 471.62
292.49 K, Crystal, x1 = 0.3 | 228.39
292.58 K, Crystal, x1 = 0.37 | 492.69
292.6 K, Metastable crystal, x1 = 0.83 | 426.25
293.09 K, Crystal, x1 = 0.83 | 549.83
293.38 K, Crystal, x1 = 0.37 | 514.4
293.57 K, Crystal, x1 = 0.3 | 214.64
294.16 K, Crystal, x1 = 0.37 | 540.9
294.56 K, Metastable crystal, x1 = 0.83 | 426.77
